The values below come from patent EP1222183B1, “BENZOPYRAN DERIVATIVES” (priority 1999, dated 2001).

SMILES strings stand for the structures.

One series deals with diastolic blood pressure. The series can be described thus: Effect on diastolic blood pressure in anaesthetised dogs after i.v. administration. The settings on record: dog, dose lowering diastolic blood pressure by 25%. The series is classed as in vivo. Here is the method: (§1) The experiments were performed according to the method of Imagawa J. et al., J. Pharmacol. Methods 22, 103-111, 1989, with substantial modifications, as follows: adult male beagle dogs, weighing 8-10 kg, were anaesthetised with pentobarbital sodium (30 mg/kg i.v. and 2 mg/kg/h i.v.), intubated and spontaneously ventilated with room air. In order to monitor systemic blood pressure (BP), a polyethylene (PE) catheter was introduced into the aortic arch through the left femoral artery. A collateral of the left femoral vein was cannulated for infusion of anaesthetic, and the right femoral vein was cannulated for administration of compounds. For intra-arterial (i.a.) injection of noradrenaline (NA), a PE catheter was introduced into the lower portion of the abdominal aorta via the right external iliac artery. Through such procedure, NA was selectively distributed to the lower urinary tract. A paramedian vertical suprapubic incision extending from the base of the pelvis to the mid-abdominal region was made and the bladder and prostate were exposed. The bladder was manually emptied with a syringe. Prostatic urethral pressure was monitored with a Mikro-tip catheter (5F) introduced into the bladder via the external urethral meatus, and withdrawn until the pressure transducer was positioned in the prostatic region of the urethra. A ligature was secured between the neck of the bladder and urethra to isolate the response of the latter and to avoid any interaction with the bladder. Another ligature was put around the Mikro-tip catheter at the external meatus, to secure the catheter itself. After a stabilising period following the surgical procedure (30 minutes), in which arterial and prostatic urethral pressure were continuously monitored as basal values, i.a. administration of NA was made at intervals of 20 minutes. The doses of NA chosen were such to produce an increase of at least 100% in urethral pressure. The test compounds were administered i.v. in a cumulative manner with intervals of 15-20 minutes between administrations. I.a. injections of NA were repeated 5 minutes after every dosing of test compound with intervals of about 10 minutes between stimulations. In order to compare the effects of the administered compound, dose/response curves (log dose transformation) were constructed by computing, at the peak effect, the percent decrease in diastolic blood pressure and the percent inhibition of the increase in urethral pressure induced by NA.

For series [1], the system named is prostatic urethral pressure. The series can be described thus: Inhibition of urethral contractions induced by noradrenaline injection in anaesthetised dogs after i.v. administration. Conditions: dog; for ED50: Canis lupus familiaris, iv, dose inhibiting by 50% the urethral contractions induced by noradrenaline, read-out: UC ID50; for DBP/UC: ratio between the active doses (DBP ED25 / UC ID50). Type of series: in vivo. Here is the method: as §1, with “cathe[…])” for “catheter (5F)”, “After a stabilising period following the surgical procedure (30 minutes), in which arterial and prostatic urethral pressure were continuously monitored as basal values, i.a. administration of NA was made at intervals of 20 minutes. The doses of NA chosen were such to produce an increase of at least 100% in urethral pressure. The test compounds were administered i.v. in a cumulative manner with intervals of 15-20 minutes between administrations. I.a. injections of NA were repeated 5 minutes after every dosing of test compound with intervals of about 10 minutes between stimulations.” left out

The subject of series [2] is prostatic urethral pressure. Conditions: dog, i.v., dose inhibiting by 50% the urethral contractions induced by noradrenaline; data from Leonardi A. et al. 1997; cited from earlier work.
Series [3] addresses T1, human 5-HT1A-serotoninergic receptor (Homo sapiens, UniProt P08908).
T1 construct: expressed in transfected cells; host or cells: HeLa (human), stably transfected
T1 sequence (P08908 1-422): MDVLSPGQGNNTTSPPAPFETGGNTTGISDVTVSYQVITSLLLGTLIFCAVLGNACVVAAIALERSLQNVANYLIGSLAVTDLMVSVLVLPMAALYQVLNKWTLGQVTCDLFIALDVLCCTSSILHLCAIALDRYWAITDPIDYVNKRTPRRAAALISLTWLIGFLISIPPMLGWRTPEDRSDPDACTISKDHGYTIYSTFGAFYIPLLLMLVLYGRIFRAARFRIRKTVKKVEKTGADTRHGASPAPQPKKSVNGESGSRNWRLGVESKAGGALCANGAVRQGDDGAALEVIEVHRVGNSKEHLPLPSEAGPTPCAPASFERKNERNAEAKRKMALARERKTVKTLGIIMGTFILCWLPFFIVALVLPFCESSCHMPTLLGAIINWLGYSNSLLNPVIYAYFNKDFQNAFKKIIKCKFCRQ
The series is described as follows: Radioligand binding ([3H]8-OH-DPAT) to cloned 5-HT1A receptor in HeLa cell membranes. Conditions: cloned human receptor in HeLa cells, 1.2 nM [3H]8-OH-DPAT, 30 minutes at 30°C; read-out: Affinity (Ki) 5-HT1A.

Consider `COc1ccc(C#N)cc1N1CCN(CCCNC(=O)c2cccc3c(=O)c(C)c(-c4ccccc4)oc23)CC1` [Example 18, 8-{3-[4-(5-Cyano-2-methoxyphenyl)-1-piperazinyl]-propylcarbamoyl}-3-methyl-4-oxo-2-phenyl-4H-1-benzopyran], for which, in the series with diastolic blood pressure, the “DBP ED25” value is 1.2976 mg/kg. In series [1], the ED50 worked out at 0.0341 mg/kg and the DBP/UC turned out to be 38.05.

For `COc1cc2nc(N3CCN(C(=O)C4CCCO4)CC3)nc(N)c2cc1OC` (centres unmarked) [Terazosin, terazosin], the “UC ID50” value in series [2] is 0.0206 mg/kg.

As to `Cc1c(-c2ccccc2)oc2c(C(=O)NCCCN3CCN(c4ccccc4OCC(F)(F)F)CC3)cccc2c1=O` [Example 15, 8-<3-{4-[2-(2,2,2-Trifluoroethoxy)-phenyl]-1-piperazinyl}propylcarbamoyl>-3-methyl-4-oxo-2-phenyl-4H-1-benzopyran], the “DBP ED25” value in the series with diastolic blood pressure was 3.001 mg/kg. In series [1], the ED50 is 0.0049 mg/kg and the DBP/UC is listed as 612.

What is called Ki is a dissociation constant, usually derived from enzyme kinetics or from competition with a known ligand. Regarding `COc1ccc(OCC(F)(F)F)cc1N1CCN(CCCNC(=O)c2cccc3c(=O)c(C)c(C(N)=O)oc23)CC1` [Example 9, 2-Carbamoyl-8-<3-{4-[2-methoxy-5-(2,2,2-trifluoroethoxy)-phenyl]-1-piperazinyl}-propylcarbamoyl>-3-methyl-4-oxo-4H-1-benzopyran], the Ki in series [3] was > 1000 nM.

On to `Cc1c(-c2ccccc2)oc2c(C(=O)NCCCN3CCN(c4cc(Cl)ccc4OCC(F)(F)F)CC3)cccc2c1=O` [Example 22, 8-<3-{4-[5-Chloro-2-(2,2,2-trifluoroethoxy)-phenyl]-1-piperazinyl}-propylcarbamoyl>-3-methyl-4-oxo-2-phenyl-4H-1-benzopyran], for which the “DBP ED25” value in the series on diastolic blood pressure amounted to 1.266 mg/kg. In series [1], the ED50 is 0.0195 mg/kg and the DBP/UC stood at 64.92.

For the molecule `CCOC(=O)c1oc2c(C(=O)NCCCN3CCN(c4cc(Cl)ccc4OC)CC3)cccc2c(=O)c1C` [Example 4, 2-Ethoxycarbonyl-8-{3-[4-(5-chloro-2-methoxyphenyl)-1-piperazinyl]-propylcarbamoyl}-3-methyl-4-oxo-4H-1-benzopyran], the “DBP ED25” value in the series with diastolic blood pressure was 0.1633 mg/kg. For the same molecule, in series [1], the ED50 amounted to 0.0023 mg/kg and the DBP/UC was 71.0.

As to `COc1ccc(Cl)cc1N1CCN(CCCNC(=O)c2cccc3c(=O)c(C)c(C(N)=O)oc23)CC1` [Example 1, 2-Carbamoyl-8-{3-[4-(5-chloro-2-methoxyphenyl)-1-piperazinyl]-propylcarbamoyl}-3-methyl-4-oxo-4H-1-benzopyran], the “DBP ED25” value with diastolic blood pressure was 2.769 mg/kg. In series [1], the ED50 is 0.0118 mg/kg and the DBP/UC turned out to be 234.7.
